In patent US12344596B2, “Solid forms of (S)-1-((2′,6-bis(difluoromethyl)-[2,4′-bipyridin]-5-yl)oxy)-2,4-dimethylpentan-2-amine and salts thereof” (Lexicon Pharmaceuticals, Inc., priority 2022, dated 2025):

Columns and labels:
[1] = storage stability at 40° C. and 75% relative humidity; type: physicochemical; conditions: stored at 40° C. and 75% relative humidity for up to four weeks
Method: Instead, the melting of Form I is observed to recrystallize to another, metastable form having a melting point of about 172.5° C.

[2] = water solubility at 25° C.; type: physicochemical; conditions: aqueous

Compound | stability of form, morphology and purity on storage [1] | solubility [2]
CC(C)C[C@](C)(N)COc1ccc(-c2ccnc(C(F)F)c2)nc1C(F)F [Compound K, ((S)-1-((2′,6-bis(difluoromethyl)-[2,4′-bipyridin]-5-yl)oxy)-2,4-dimethylpentan-2-aminiumdihydrogen phosphate] | neither the form itself, its morphology, nor its purity changed | –
CC(C)C[C@](C)(N)COc1ccc(-c2ccnc(C(F)F)c2)nc1C(F)F.Cl [Compound S, (S)-1-((2′,6-bis(difluoromethyl)-[2,4′-bipyridin]-5-yl)oxy)-2,4-dimethylpentan-2-amine hydrochloride] | – | 2900 µg/mL
